For this assay, the target named is T1, recombinant JAK2 (Homo sapiens, UniProt O60674).
T1 construct: purchased Upstate Cell Signaling Solutions
Kind of assay: IC50 value determinations for Jak2 kinase, luminescence-based kinase assay (Kinase-Glo). The format is biochemical.

The mark [1] stands for this setting: Table 5, Initial Screening Hits for JAK2.

These results are taken from patent publication US8604042B2, “Bi-aryl meta-pyrimidine inhibitors of kinases” (TargeGen, Inc., priority 2005, dated 2013).

Counter-ions that a name gives are not always drawn.

T1 sequence (O60674 808-1132 limits assumed): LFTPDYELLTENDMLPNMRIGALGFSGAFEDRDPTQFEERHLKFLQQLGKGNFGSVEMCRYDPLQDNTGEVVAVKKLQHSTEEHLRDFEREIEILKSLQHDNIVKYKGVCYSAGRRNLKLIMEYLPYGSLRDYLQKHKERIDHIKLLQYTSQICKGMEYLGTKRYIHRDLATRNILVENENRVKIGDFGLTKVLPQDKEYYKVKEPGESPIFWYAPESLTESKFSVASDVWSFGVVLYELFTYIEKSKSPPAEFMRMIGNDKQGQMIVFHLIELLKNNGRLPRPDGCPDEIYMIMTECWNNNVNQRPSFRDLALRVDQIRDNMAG

Take `Cc1cnc(Nc2ccc(N3CCN(C)CC3)cc2)nc1Nc1cccc(C(N)=O)c1` [3-{5-Methyl-2-[4-(4-methyl-piperazin-1-yl)-phenylamino]-pyrimidin-4-ylamino}-benzamide]: where the note is “Table 1”, the IC50 (as a rule, the midpoint of a concentration-inhibition curve) turned out to be 23 nM. `Cc1cnc(Nc2ccc(N3CCN(C)CC3)cc2)nc1Nc1cccc(S(N)(=O)=O)c1` [3-{5-Methyl-2-[4-(4-methyl-piperazin-1-yl)-phenylamino]-pyrimidin-4-ylamino}-benzenesulfonamide]: the half-inhibitory concentration (IC50) (Table 1) is 13.6 nM.

Consider `Cc1cnc(Nc2ccc(OCCN3CCCC3)cc2)nc1Nc1ccc(C#N)c(Cl)c1` [4-(2-(4-(2-(pyrrolidin-1-yl)ethoxy)phenylamino)-5-methylpyrimidin-4-ylamino)-2-chlorobenzonitrile Hydrochloride], for which the IC50 (Table 1) was 67.5 nM. Take `O=S(=O)(NCCN1CCCC1)c1ccc(Nc2nccc(Nc3cccc(O)c3)n2)cc1` [4-[4-(3-Hydroxy-phenylamino)-pyrimidin-2-ylamino]-N-(2-pyrrolidin-1-yl-ethyl)-benzenesulfonamide trifluoroacetate]: the IC50 (Table 1) amounted to 3620 nM.

Regarding `COc1cccc(Nc2ccnc(Nc3ccc(S(=O)(=O)NCCN4CCCC4)cc3)n2)c1` [4-[4-(3-Methoxy-phenylamino)-pyrimidin-2-ylamino]-N-(2-pyrrolidin-1-yl-ethyl)-benzenesulfonamide trifluoroacetate], the IC50 (Table 1) was found to be 638 nM. On to `O=S(=O)(NCCN1CCCC1)c1ccc(Nc2nccc(Nc3ccc(O)cc3)n2)cc1` [4-[4-(4-Hydroxy-phenylamino)-pyrimidin-2-ylamino]-N-(2-pyrrolidin-1-yl-ethyl)-benzenesulfonamide], for which the IC50 (Table 1) was determined as 9740 nM.

As for `COc1ccc(Nc2ccnc(Nc3ccc(S(=O)(=O)NCCN4CCCC4)cc3)n2)cc1` [4-[4-(4-Methoxy-phenylamino)-pyrimidin-2-ylamino]-N-(2-pyrrolidin-1-yl-ethyl)-benzenesulfonamide trifluoroacetate], the IC50 (Table 1) came to 10700 nM. As to `Cc1cnc(Nc2ccc(N3CCN(C)CC3)cc2)nc1Nc1cccc(C2CCNCC2)c1` [5-Methyl-N2-[4-(4-methyl-piperazin-1-yl)-phenyl]-N4-(3-piperidin-4-yl-phenyl)-pyrimidine-2,4-diamine], where the note is “Table 1”, the IC50 was found to be 42.5 nM. On the same count and under the same terms, the value for `Cc1cnc(Nc2ccc(N3CCN(C)CC3)cc2)nc1Nc1cccc(S(=O)(=O)N2CCCCC2C)c1` (stereo not shown) [5-Methyl-N2-[4-(4-methyl-piperazin-1-yl)-phenyl]-N4-[3-(2-methyl-piperidine-1-sulfony)-phenyl]-pyrimidine-2,4-diamine Hydrochloride] was 33.5 nM.

As for `Cc1cnc(Nc2ccc(N3CCN(C)CC3)cc2)nc1Nc1cccc(S(=O)(=O)N2CCOCC2)c1` [5-Methyl-N2-[4-(4-methyl-piperazin-1-yl)-phenyl]-N4-[3-(morpholine-4-sulfonyl)-phenyl]-pyrimidine-2,4-diamine], the IC50 (Table 1) came to 20.7 nM. Consider `Cc1cnc(Nc2ccc(N3CCN(C)CC3)cc2)nc1Nc1cccc(S(=O)(=O)N2CCCCC2)c1` [5-Methyl-N2-[4-(4-methyl-piperazin-1-yl)-phenyl]-N4-[3-(piperidine-1-sulfony)-phenyl]-pyrimidine-2,4-diamine Hydrochloride], for which the IC50 (Table 1) stood at 24.8 nM. On the same count and under the same terms, the figure for `Cc1cnc(Nc2ccc(N3CCN(C)CC3)cc2)nc1Nc1cccc(S(=O)(=O)C2CCNCC2)c1` [5-Methyl-N2-[4-(4-methyl-piperazin-1-yl)-phenyl]-N4-[3-(piperidine-4-sulfonyl)-phenyl]-pyrimidine-2,4-diamine] is 198 nM; for `Cc1cnc(Nc2ccc(N3CCN(C)CC3)cc2)nc1Nc1cccc(S(=O)(=O)N2CCCC2)c1` [5-Methyl-N2-[4-(4-methyl-piperazin-1-yl)-phenyl]-N4-[3-(pyrrolidine-1-sulfony)-phenyl]-pyrimidine-2,4-diamine Hydrochloride] it is 17.1 nM.

In the case of `Cc1cnc(Nc2ccc(OC3CCNCC3)cc2)nc1Nc1cccc(C(F)(F)F)c1C` [5-Methyl-N4-(2-methyl-3-trifluoromethyl-phenyl)-N2-[4-(piperidin-4-yloxy)-phenyl]-pyrimidine-2,4-diamine], for the setting “Table 1”, the IC50 was 52.9 nM. With `Cc1cnc(Nc2ccc(OCCN3CCCC3)cc2)nc1Nc1ccccc1` [5-Methyl-N4-phenyl-N2-[4-(2-pyrrolidin-1-yl-ethoxy)-phenyl]-pyrimidine-2,4-diamine], the IC50 (Table 1) turned out to be 16.7 nM. As to `COC(=O)c1cc(Nc2ncc(C)c(Nc3ccc(Cl)c(OC)c3)n2)ccc1N1CCNCC1` [5-[4-(4-Chloro-3-methoxy-phenylamino)-5-methyl-pyrimidin-2-ylamino]-2-piperazin-1-yl-benzoic acid methyl ester], the IC50 (Table 1) was 5.12 nM. For `COC(=O)c1cc(Nc2ncc(C)c(Nc3cccc4c3OCO4)n2)ccc1OCCN1CCCC1` [5-[4-(Benzo[1,3]dioxol-4-ylamino)-5-methyl-pyrimidin-2-ylamino]-2-(2-pyrrolidin-1-yl-ethoxy)-benzoic acid methyl ester], the concentration for half-maximal inhibition (IC50) (Table 1) was 16.4 nM. `Cc1cnc(Nc2ccc(N3CCN(C)CC3)cc2)nc1Nc1cccc(S(C)(=O)=O)c1` [5-methyl-N2-(4-(4-methylpiperazin-1-yl)phenyl)-N4-(3-(methylsulfonyl)phenyl) pyrimidine-2,4-diamine]: the half-maximal inhibitory concentration (IC50) (Table 1) stood at 215 nM.

Consider `Cc1cnc(Nc2ccc(N3CCN(C)CC3)cc2)nc1Nc1cccc(N2CCCCC2)c1` [5-methyl-N2-(4-(4-methylpiperazin-1-yl)phenyl)-N4-(3-(piperidin-1-yl)phenyl)pyrimidine-2,4-diamine], for which, for the setting “Table 1”, the half-inhibitory concentration (IC50) was found to be 46.3 nM. As to `CCCS(=O)(=O)c1cccc(Nc2nc(Nc3ccc(N4CCN(C)CC4)cc3)ncc2C)c1` [5-methyl-N2-(4-(4-methylpiperazin-1-yl)phenyl)-N4-(3-(propylsulfonyl)phenyl) pyrimidine-2,4-diamine], the IC50 (Table 1) was 8 nM. The same measure, in the same setting: the figure for `Cc1cnc(Nc2ccc(N3CCN(C)CC3)cc2)nc1Nc1cccc(C)c1C` [5-methyl-N4-(2,3-dimethylphenyl)-N2-(4-(4-methylpiperazin-1-yl)phenyl)pyrimidine-2,4-diamine Hydrochloride] is 16 nM; for `Cc1cnc(Nc2ccc(OC3CCNCC3)cc2)nc1Nc1cccc(C)c1C` [5-methyl-N4-(2,3-dimethylphenyl)-N2-(4-(piperidin-4-yloxy)phenyl)pyrimidine-2,4-diamine Hydrochloride] it is 4.38 nM. For `Cc1cc(C)cc(Nc2nc(Nc3ccc(OC4CCNCC4)cc3)ncc2C)c1` [5-methyl-N4-(3,5-dimethylphenyl)-N2-(4-(piperidin-4-yloxy)phenyl)pyrimidine-2,4-diamine hydrochloride], the concentration for half-maximal inhibition (IC50) (Table 1) was found to be 37.2 nM. With `Cc1cnc(Nc2ccc(N3CCN(C)CC3)cc2)nc1Nc1ccc(C)c2[nH]ccc12` [5-methyl-N4-(7-methyl-1H-indol-4-yl)-N2-(4-(4-methylpiperazin-1-yl)phenyl)pyrimidine-2,4-diamine Hydrochloride], the IC50 (Table 1) was determined as 3.84 nM. As to `Cc1cnc(Nc2ccc(OC3CCNCC3)cc2)nc1Nc1cccc(C(=O)N2CCCC2)c1` [(3-{5-Methyl-2-[4-(piperidin-4-yloxy)-phenylamino]-pyrimidin-4-ylamino}-phenyl)-pyrrolidin-1-yl-methanone], the IC50 (Table 1) was found to be 113 nM. `COc1cc(Nc2nc(Nc3ccc(OCCN4CCCC4)cc3)ncc2C#N)c(Cl)cc1Cl` [Compound 1]: the IC50 under setting [1] came out at 6240 nM. `COc1cc(Nc2nc(Nc3cccc(OCCN4CCCC4)c3)ncc2C#N)c(Cl)cc1Cl` [Compound 2]: the IC50 under setting [1] came to 10500 nM and the concentration for half-maximal inhibition (IC50) (Table 7, SAR for the P3 region) amounted to 10500 nM. As to `COc1cc(Nc2nc(Nc3cccc(OCCN4CCCC4)c3)ncc2C)c(Cl)cc1Cl` [Compound 3], the IC50 is, setting by setting: under setting [1], 2040 nM; (Table 7, SAR for the P3 region) 2040 nM. In the case of `COc1cccc(Nc2ccnc(Nc3ccc(OCCN4CCCC4)cc3)n2)c1` [Compound 4], the half-inhibitory concentration (IC50) by setting is: (Table 6) 105 nM; (Table 7, SAR for the P3 region) 105 nM; (Table 8, SAR of the P4 region) 105 nM. As for `COc1cccc(Nc2nc(Nc3ccc(OCCN4CCCC4)cc3)ncc2C)c1` [Compound 5], the IC50 reads like this: (Table 6) 53 nM; (Table 7, SAR for the P3 region) 53 nM. For `COc1cc(Nc2nc(Nc3ccc(OCCN4CCCC4)cc3)ncc2C)ccc1Cl` [Compound 6], the concentration for half-maximal inhibition (IC50) amounted to 8 nM (Table 6) and 8 nM (Table 7, SAR for the P3 region). In the case of `COc1ccc(Nc2ncc(C)c(Nc3cccc4c3OCO4)n2)cc1` [Compound 7], the 50% inhibitory concentration (IC50) (Table 7, SAR for the P3 region) came out at 46 nM. On the same count and under the same terms, the figure for `Cc1nc(Nc2ccccc2)nc(Nc2cccc3c2OCO3)c1C` [Compound 8] is above 10000 nM. As to `Cc1cnc(Nc2ccc(N3CCN(C)CC3)cc2)nc1Nc1cc(C)c(Cl)c(C)c1` [Compound 38], the concentration for half-maximal inhibition (IC50) (Table 8, SAR of the P4 region) turned out to be 12 nM. In the case of `Cc1cnc(Nc2cccc(S(=O)(=O)NC(C)(C)C)c2)nc1Nc1cccc(S(=O)(=O)NC(C)(C)C)c1` [Compound 58], the half-inhibitory concentration (IC50) (Table 9, SAR of the P2/P1 region) was 707 nM.

Turning to `Cc1cnc(Nc2ccc(-n3cccn3)cc2)nc1Nc1cccc(C(C)(C)C)c1` [N2-(4-(1H-pyrazol-1-yl)phenyl)-N4-(3-tert-butylphenyl)-5-methylpyrimidine-2,4-diamine], the IC50 (Table 1) worked out at 151 nM. With `Cc1cnc(Nc2ccc(OCCN3CCCC3)cc2)nc1Nc1cccc(OC(F)(F)F)c1` [N2-(4-(2-(pyrrolidin-1-yl)ethoxy)phenyl)-5-methyl-N4-(3-(trifluoromethoxy)phenyl) pyrimidine-2,4-diamine], the IC50 (Table 1) was determined as 20.7 nM. The same measure, in the same setting: the value for `Cc1cnc(Nc2ccc(OCCN3CCCC3)cc2)nc1Nc1cccc([N+](=O)[O-])c1` [N2-(4-(2-(pyrrolidin-1-yl)ethoxy)phenyl)-5-methyl-N4-(3-nitrophenyl)pyrimidine-2,4-diamine Hydrochloride] was 61.1 nM; that for `Cc1cnc(Nc2ccc(OCCN3CCCC3)cc2)nc1Nc1ccc(C)c2[nH]ccc12` [N2-(4-(2-(pyrrolidin-1-yl)ethoxy)phenyl)-5-methyl-N4-(7-methyl-1H-indol-4-yl)pyrimidine-2,4-diamine Hydrochloride] was 6.98 nM; that for `Cc1cnc(Nc2ccc(OCCN3CCCC3)cc2)nc1Nc1cccc2ccccc12` [N2-(4-(2-(pyrrolidin-1-yl)ethoxy)phenyl)-5-methyl-N4-(naphthalen-1-yl)pyrimidine-2,4-diamine Hydrochloride] was 20 nM.
